Assay results from patent US9400281B2, “Method of screening of therapeutic agents for K-Ras mutant driven cancers” (PUSAN NATIONAL UNIVERSITY INDUSTRY-UNIVERSITY COOPERATION …, priority 2008, dated 2016).
Where two headings read alike, the source gives them in different places.

Assays:
A549 and Capan-1 = test: Expression of median (culture media) p53 in A549 and Capan-1; format: cell-based; details: A549 and Capan-1, FIG. 15B
Method: (§1) Also, protease inhibitor (PMSF) and endocytosis inhibitor (Brefeldin A; BFA) were treated into A549 and Capan-1.

A549 = test: Location of recombinant p53 in A549 whole cell lysate (endocytosis); format: cell-based; details: A549, FIG. 15C
Method: First, A549 and MKN 45 cells were treated with recombinant p53, and their locations were identified. In comparison with control protein (His-lamin A) recovered from media, His-p53 was expressed in whole cell lysate of A549 (FIG. 15A). In addition, His-p53 was completely removed from MKN45 cells and culture media thereof (FIG. 15A).
as §1

[1] = system: K-Ras mutant cancer cell lines HCT116; test: Western blot of p53 and p21 expression in K-Ras mutant HCT116 cells; format: cell-based; details: Homo sapiens, HCT-116, HCT116, 10 μM
Method: To confirm whether the compounds prepared according to Examples 1 to 5 are effective for inhibiting SNAIL-p53 binding at cell level, the compound was treated into K-Ras mutant cancer cell lines HCT116 and results were analyzed by western blotting.
Oncogenic K-ras suppresses the p53 activity through SNAIL. In the cell line HCT116, SNAIL is always expressed by K-Ras mutation and bound to p53 to suppress normal activity of p53. If the K-Ras mutant cancer cell line HCT116 is treated with a compound for suppressing SNAIL-p53 binding, p53 is normally activated and more expressed, and target genes of p53 are induced.
First, western blotting was performed to detect expression of p53 and p21, which is a target gene of p53. All cell lines used in the present invention were obtained from ATCC, and maintained in 10% FBS-containing RPMI-1640 or DMEM. Protein was extracted with RIPA buffer solution and a membrane loaded with cell lysate through typical SDS-PAGE and gel transfer method was prepared. After blocking with 5% non-fat dry milk, the membrane was subjected into a typical western blot procedure with an antibody corresponding to each gene. Antibodies used herein were obtained from Cell signaling, SantaCruz. p53 activity was confirmed by expression of p21, which is a target gene of p53.

SNAIL-p53 binding = test: GST pull down assay of SNAIL-p53 binding (Experimental Example 2); set-up: species or system human; details: FIG. 21
Method: GST pull down assay is a method for identifying a binding degree of two proteins. GST-fused SNAIL protein and p53 recombinant protein were prepared and treated with the compound 5o or 7a to identify a binding degree of GST-SNAIL protein and p53 protein. […] If MDM2 is over-expressed, proteolysis of p53 is induced to suppress apoptosis occurring through target genes of p53, and an […] of cells is induced. Although MDM2 is a representative control factor of p53, MDM2 is not applied to K-Ras mutant disease or mutant p53 containing disease.
To perform GST pull down assay, three human SNAIL fragments (residues 1-90, 91-112, and 113-264) and p53 fragments (1-93 and 93-292) were expressed in E. coli as GST-fusion protein. Each of the fragments was loaded on to GSH-agarose, washed, and then eluted using a buffer containing 20 mM reduced glutathione. The eluted fractions were purified using an anionexchange chromatography (HitrapQ). The recombinant human p53 protein (residues 94-292) was expressed in E. coli using the vector pET28A which contains a hexa-histidine tag at the C terminus. The p53 protein including the hexa-histidine tag was purified using Ni-NTA affinity and a size exclusion chromatography (Superdex 200). To confirm the direct binding between p53 and SNAIL, agarose-bead conjugated GST or GST-SNAIL was incubated with His-p539 (histidine-p53) in PBS for 45 minutes at 4° C.. After washing with PBS, the precipitated protein was subjected into SDS-PAGE and western blotting.

[2] = system: A549 (K-Ras mutant cancer cell line); test: Cell death rate by tryphan blue cell counting, A549; format: cell-based; details: A549 (A546 [sic])
From the text: (§2) To confirm that the p53 induction of the compounds is related to K-Ras, A549 and HCT116, which are K-Ras mutant cancer cell lines, and MKN45, which is K-Ras wild type cancer cell line, were used.

[3] = system: HCT116 (K-Ras mutant cancer cell line); test: Cell death rate by tryphan blue cell counting, HCT116; format: cell-based
[4] = system: MKN45 (K-Ras wild type cancer cell line); test: Cell death rate by tryphan blue cell counting, MKN45; format: cell-based
From the text: as §2

MDA-MB 468 = test: Western blot of p21 expression in mutant p53 MDA-MB 468 cells; format: cell-based, human; details: for Expression ratio of gene to control, p21: DMSO control = 1.0
A549 cells = test: Xenograft in vivo: A549 cells injected intraperitoneally into athymic mouse
Method: Athymic mouse was obtained from Daehan Biolink Co. Ltd, and raised under temperature and light conditions (20-23° C., cycle of 12 hours light/12 hours darkness) and fed with sterile diet and water freely. After 2 weeks, 1×10^7 A549 cells were inoculated into the athymic mouse (n=21) by intraperitoneal injection. After 2 weeks, each group was divided into three subgroups and PBS, and 10 mg/kg or 20 mg/kg of the compound 5o were intraperitoneally injected once per week for 10 weeks, and vitality thereof was measured. This animal test was approved by the Animal Protection Committee of Pusan National University, and performed according to a guideline presented by the same.

[5] = system: SNAIL-mediated p53 suppression; test: Effect on SNAIL-mediated p53 reduction in transfected cells; format: cell-based; details: SNAIL (or K-Ras) transfected cells
Method: Also, the effect of the chemicals on SNAIL-mediated p53 suppression was checked. As shown in FIGS. 10E and 10F, p53 reduction by co-transfection of SNAIL was blocked by treatment of chemicals by #3 and #9.
The reduction of p53 by SNAIL was confirmed in real time (see FIG. 13D). Expression of p53 in culture-media was checked and within 2 hours, the expression of p53 in media was detected (see FIG. 13E). Moreover, p53 was detected in cytosol as a vesicle-like-structure in SNAIL or K-Ras transfected cells, and finally detected in an extracellular region (see FIG. 13F). Meanwhile, SNAIL was located in vesicle of cytosol with p53 (see FIG. 17A).
Since p53 is reduced by vesicle-like transport, p53 expression was checked by disrupting cytoskeleton-network by Nocodazole (Noc). […] Despite of cytoplasmic vesicle-like staining of p53 in Noc-treated cells, cellular morphology was changed differentially from control cells (see FIG. 14B). Noc blocked the p53 reduction (see FIG. 14C). Median p53 was disappeared by Noc-treatment, whereas p53 was accumulated in cytoplasm as vesicle (see FIGS. 14D and 14E). Aph/Noc blocked the reduction of p53, which was not achieved by LMB (FIGS. 14F and 14G).

SNAIL and p53 binding = test: ELISA system for screening SNAIL-p53 binding inhibitors; set-up: species or system human; details: His-p53 (93-292) and GST SNAIL
Method: To isolate SNAIL-p53 binding inhibitor, ELISA system was prepared. His-p53 (93-292) was immobilized on 96 well plates using 0.5 PFA. After drying and washing, the 96 well plates were incubated with GST SNAIL with 0.1 μM of chemicals (final concentration). After 1 hour incubation, the 96 well plates were washed with TBST and incubated with anti-GST-antibody (1: 10000, 45 min) and anti-mouse-IgG-HRP (1; 50000, 30 min). After washing twice, plates were incubated with a TMB solution and a stop solution. Measurement was performed using an ELISA plate reader.

K-Ras mutated cells = test: Cell death in K-Ras mutated cells; format: cell-based; details: FIG. 11D
[6] = 10 mg/kg i.p. once per week for 10 weeks
[7] = 20 mg/kg i.p. once per week for 10 weeks

C[C@H]1CCC/C=C/[C@@H]2C[C@H](O)C[C@H]2[C@H](O)/C=C/C(=O)O1 [Brefeldin A]
Expression of median p53 (A549 and Capan-1): increased expression of median p53
Location of recombinant p53 in whole cell lysate (A549): blocked the location of recombinant p53

COc1ccc(OC)c2c1C(=O)C=C(SCCC(=O)O)C2=O [Compound 5o, 3-(5,8-dimethoxy-1,4-dioxo-naphthalen-2-ylthio)propanoic acid]
fold induction at 10 µM ([1]; DMSO control = 1.0, read-out: Protein expression ratio of compound to control, p21): 2.5
fold induction at 10 µM ([1]; DMSO control = 1.0, read-out: Protein expression ratio of compound to control, p53): 2.6
Binding between GST-SNAIL protein and p53 (SNAIL-p53 binding): substantially weak
Cancer cell death rate of compounds with respect to control ([2]; 5 μM): 30 ± 4.5%
Cancer cell death rate of compounds with respect to control ([2]; 20 μM): 62 ± 1.7%
Cancer cell death rate of compounds with respect to control ([3]; 5 μM): 35 ± 3.2%
Cancer cell death rate of compounds with respect to control ([3]; 20 μM): 67 ± 2.5%
Cancer cell death rate of compounds with respect to control ([4]; 5 μM): 10 ± 2.9%
Cancer cell death rate of compounds with respect to control ([4]; 20 μM): 18 ± 1.9%
Expression ratio of gene to control, p21 (MDA-MB 468; MDA-MB 468, 5 μM): 13.5
Expression ratio of gene to control, p21 (MDA-MB 468; MDA-MB 468, 10 μM): 25.9
Expression ratio of gene to control, p21 (MDA-MB 468; MDA-MB 468, 20 μM): 31.3
Expression of p21 (target gene of p53) (MDA-MB 468; p53 mutant-type MDA-MB 468, FIG. 23): strong
Tumor-caused death (survival) (A549 cells; 10 mg/kg and 20 mg/kg, 10 weeks, FIG. 24): tumor-caused death was prevented
Tumor development at tumor site A.C (A549 cells; [6]): 3 (regression)
Tumor development at tumor site Liver (A549 cells; [6]): 0
Tumor development at tumor site Lung (A549 cells; [6]): 0
Tumor development at tumor site Pancreas (A549 cells; [6]): 0
Tumor development at tumor site A.C (A549 cells; [7]): 2 (regression)
Tumor development at tumor site Liver (A549 cells; [7]): 0
Tumor development at tumor site Lung (A549 cells; [7]): 0
Tumor development at tumor site Pancreas (A549 cells; [7]): 0
Tumor in treated group (A549 cells; FIG. 25): almost no tumor
Overall anatomical abnormal finding according to weight loss or injection of the compound (A549 cells; FIG. 26): not observed

COC(=O)Nc1nc2ccc(C(=O)c3cccs3)cc2[nH]1 [Nocodazole]
SNAIL-mediated p53 reduction [5]: blocked the SNAIL or K-Ras mediated p53 reduction

O=S(=O)(F)Cc1ccccc1 [PMSF]
Expression of median p53 (A549 and Capan-1): increased expression of median p53

O=c1c(O)c(-c2ccc(O)c(O)c2)oc2cc(O)cc(O)c12 [Quercetin]
Inhibition of SNAIL and p53 binding (SNAIL and p53 binding): identified as an inhibitor of SNAIL-p53 interaction

COc1cc(/C=C/C(=O)O)ccc1O [ferulic acid]
Cell death (K-Ras mutated cells): evoked cell death

CCC(=C/[C@H](C)C/C=C/C(C)=C/[C@@H](C)C(=O)[C@@H](C)[C@H](O)[C@@H](C)C/C(C)=C/C(=O)O)/C=C/[C@@H]1OC(=O)C=C[C@@H]1C [leptomycin B]
SNAIL-mediated p53 reduction [5]: did not block the SNAIL-mediated p53 reduction
